Results reported in PubChem BioAssay (NCI).
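96-well plates; 48 h exposure; 5 concentrations. Endpoints by linear interpolation between flanking doses. Not reached: highest tested concentration assigned. GI50 = concentration required for 50% inhibition of growth. TGI denotes the concentration required for complete inhibition of growth.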

Columns and labels:
Assay in all cases: NCI-60 cell line screen, 48 h
SW-620 colon = tested on: SW-620 colon
XF 498 CNS = tested on: XF 498 CNS
U251 CNS = tested on: U251 CNS
RXF 393 renal = tested on: RXF 393 renal
UACC-257 melanoma = tested on: UACC-257 melanoma
RPMI-8226 leukemia = tested on: RPMI-8226 leukemia
KM12 colon = tested on: KM12 colon
MALME-3M melanoma = tested on: MALME-3M melanoma
K-562 leukemia = tested on: K-562 leukemia
LXFL 529 NSCLC = tested on: LXFL 529 NSCLC
OVCAR-4 ovarian = tested on: OVCAR-4 ovarian
SNB-75 CNS = tested on: SNB-75 CNS
SNB-78 CNS = tested on: SNB-78 CNS
SF-295 CNS = tested on: SF-295 CNS
OVCAR-8 ovarian = tested on: OVCAR-8 ovarian
786-0 renal = tested on: 786-0 renal
LOX IMVI melanoma = tested on: LOX IMVI melanoma
NCI-H226 lung = tested on: NCI-H226 lung
SK-MEL-28 melanoma = tested on: SK-MEL-28 melanoma
EKVX NSCLC = tested on: EKVX NSCLC
A498 renal = tested on: A498 renal
SF-539 CNS = tested on: SF-539 CNS
TK-10 renal = tested on: TK-10 renal
COLO 205 colon = tested on: COLO 205 colon
HOP-62 NSCLC = tested on: HOP-62 NSCLC
CCRF-CEM leukemia = tested on: CCRF-CEM leukemia
DLD-1 colon = tested on: DLD-1 colon
HOP-18 NSCLC = tested on: HOP-18 NSCLC
DMS 273 small cell lung = tested on: DMS 273 small cell lung
SK-OV-3 ovarian = tested on: SK-OV-3 ovarian
UO-31 renal = tested on: UO-31 renal
HT29 colon = tested on: HT29 colon
SF-268 CNS = tested on: SF-268 CNS
DMS 114 small cell lung = tested on: DMS 114 small cell lung
M14 melanoma = tested on: M14 melanoma
NCI-H522 lung = tested on: NCI-H522 lung
SNB-19 CNS = tested on: SNB-19 CNS
SK-MEL-2 melanoma = tested on: SK-MEL-2 melanoma
UACC-62 melanoma = tested on: UACC-62 melanoma
HCT-15 colon = tested on: HCT-15 colon
HCT-116 colon = tested on: HCT-116 colon
HL-60(TB) leukemia = tested on: HL-60(TB) leukemia
NCI-H23 lung = tested on: NCI-H23 lung
SN12C renal = tested on: SN12C renal
ACHN renal = tested on: ACHN renal
CAKI-1 renal = tested on: CAKI-1 renal
NCI-H460 lung = tested on: NCI-H460 lung
IGROV1 ovarian = tested on: IGROV1 ovarian
SK-MEL-5 melanoma = tested on: SK-MEL-5 melanoma
OVCAR-3 ovarian = tested on: OVCAR-3 ovarian
MOLT-4 leukemia = tested on: MOLT-4 leukemia
HCC-2998 colon = tested on: HCC-2998 colon
A549 NSCLC = tested on: A549 NSCLC
KM20L2 colon = tested on: KM20L2 colon

**Q.** For `[CH3][Sn]1([CH3])[O]CC(COc2cc(Cl)c(Cl)cc2Cl)[O]1` (stereo not drawn), which GI50 (SW-620 colon) is on record?
**A.** 51 µM

**Q.** What about the TGI (SW-620 colon) of the same compound?
**A.** > 100 µM

**Q.** What about the GI50 (XF 498 CNS) of the same compound?
**A.** 68 µM

**Q.** What about the TGI (XF 498 CNS) of the same compound?
**A.** > 100 µM

**Q.** What about the GI50 (U251 CNS) of the same compound?
**A.** > 100 µM

**Q.** What about the TGI (U251 CNS) of the same compound?
**A.** > 100 µM

**Q.** What about the GI50 (RXF 393 renal) of the same compound?
**A.** 29.1 µM

**Q.** What about the TGI (RXF 393 renal) of the same compound?
**A.** > 100 µM

**Q.** What about the GI50 (UACC-257 melanoma) of the same compound?
**A.** 99 µM

**Q.** What about the TGI (UACC-257 melanoma) of the same compound?
**A.** > 100 µM

**Q.** And the GI50 (RPMI-8226 leukemia)?
**A.** > 100 µM

**Q.** What about the TGI (RPMI-8226 leukemia) of the same compound?
**A.** > 100 µM

**Q.** And the GI50 (KM12 colon)?
**A.** 45.8 µM

**Q.** What about the TGI (KM12 colon) of the same compound?
**A.** > 100 µM

**Q.** And the GI50 (MALME-3M melanoma)?
**A.** > 100 µM

**Q.** And the TGI (MALME-3M melanoma)?
**A.** > 100 µM

**Q.** And the GI50 (K-562 leukemia)?
**A.** > 100 µM

**Q.** And the TGI (K-562 leukemia)?
**A.** > 100 µM

**Q.** What about the GI50 (LXFL 529 NSCLC) of the same compound?
**A.** 41.2 µM

**Q.** And the TGI (LXFL 529 NSCLC)?
**A.** > 100 µM

**Q.** And the GI50 (OVCAR-4 ovarian)?
**A.** > 100 µM

**Q.** And the TGI (OVCAR-4 ovarian)?
**A.** > 100 µM

**Q.** What about the GI50 (SNB-75 CNS) of the same compound?
**A.** 23.1 µM

**Q.** What about the TGI (SNB-75 CNS) of the same compound?
**A.** 68.8 µM

**Q.** What about the GI50 (SNB-78 CNS) of the same compound?
**A.** 49.6 µM

**Q.** And the TGI (SNB-78 CNS)?
**A.** > 100 µM

**Q.** What about the GI50 (SF-295 CNS) of the same compound?
**A.** 38.8 µM

**Q.** What about the TGI (SF-295 CNS) of the same compound?
**A.** > 100 µM

**Q.** What about the GI50 (OVCAR-8 ovarian) of the same compound?
**A.** > 100 µM

**Q.** What about the TGI (OVCAR-8 ovarian) of the same compound?
**A.** > 100 µM

**Q.** And the GI50 (786-0 renal)?
**A.** > 100 µM

**Q.** And the TGI (786-0 renal)?
**A.** > 100 µM

**Q.** And the GI50 (LOX IMVI melanoma)?
**A.** > 100 µM

**Q.** And the TGI (LOX IMVI melanoma)?
**A.** > 100 µM

**Q.** What about the GI50 (NCI-H226 lung) of the same compound?
**A.** 30.7 µM

**Q.** And the TGI (NCI-H226 lung)?
**A.** > 100 µM

**Q.** And the GI50 (SK-MEL-28 melanoma)?
**A.** > 100 µM

**Q.** And the TGI (SK-MEL-28 melanoma)?
**A.** > 100 µM

**Q.** And the GI50 (EKVX NSCLC)?
**A.** 55.9 µM

**Q.** And the TGI (EKVX NSCLC)?
**A.** > 100 µM

**Q.** And the GI50 (A498 renal)?
**A.** 70 µM

**Q.** What about the TGI (A498 renal) of the same compound?
**A.** > 100 µM

**Q.** And the GI50 (SF-539 CNS)?
**A.** 24.7 µM

**Q.** And the TGI (SF-539 CNS)?
**A.** > 100 µM

**Q.** What about the GI50 (TK-10 renal) of the same compound?
**A.** > 100 µM

**Q.** And the TGI (TK-10 renal)?
**A.** > 100 µM

**Q.** What about the GI50 (COLO 205 colon) of the same compound?
**A.** > 100 µM

**Q.** And the TGI (COLO 205 colon)?
**A.** > 100 µM

**Q.** What about the GI50 (HOP-62 NSCLC) of the same compound?
**A.** > 100 µM

**Q.** And the TGI (HOP-62 NSCLC)?
**A.** > 100 µM

**Q.** And the GI50 (CCRF-CEM leukemia)?
**A.** 32.5 µM

**Q.** And the TGI (CCRF-CEM leukemia)?
**A.** > 100 µM

**Q.** And the GI50 (DLD-1 colon)?
**A.** 54.5 µM

**Q.** And the TGI (DLD-1 colon)?
**A.** > 100 µM

**Q.** What about the GI50 (HOP-18 NSCLC) of the same compound?
**A.** 75 µM

**Q.** And the TGI (HOP-18 NSCLC)?
**A.** > 100 µM

**Q.** And the GI50 (DMS 273 small cell lung)?
**A.** > 100 µM

**Q.** And the TGI (DMS 273 small cell lung)?
**A.** > 100 µM

**Q.** What about the GI50 (SK-OV-3 ovarian) of the same compound?
**A.** 85.6 µM

**Q.** And the TGI (SK-OV-3 ovarian)?
**A.** > 100 µM

**Q.** And the GI50 (UO-31 renal)?
**A.** 71 µM

**Q.** And the TGI (UO-31 renal)?
**A.** > 100 µM

**Q.** And the GI50 (HT29 colon)?
**A.** > 100 µM

**Q.** What about the TGI (HT29 colon) of the same compound?
**A.** > 100 µM

**Q.** And the GI50 (SF-268 CNS)?
**A.** 74.9 µM

**Q.** And the TGI (SF-268 CNS)?
**A.** > 100 µM

**Q.** And the GI50 (DMS 114 small cell lung)?
**A.** 50.1 µM

**Q.** And the TGI (DMS 114 small cell lung)?
**A.** > 100 µM

**Q.** And the GI50 (M14 melanoma)?
**A.** 39.6 µM

**Q.** And the TGI (M14 melanoma)?
**A.** > 100 µM

**Q.** And the GI50 (NCI-H522 lung)?
**A.** 16.8 µM

**Q.** What about the TGI (NCI-H522 lung) of the same compound?
**A.** 36.3 µM

**Q.** What about the GI50 (SNB-19 CNS) of the same compound?
**A.** > 100 µM

**Q.** And the TGI (SNB-19 CNS)?
**A.** > 100 µM

**Q.** What about the GI50 (SK-MEL-2 melanoma) of the same compound?
**A.** 62 µM

**Q.** And the TGI (SK-MEL-2 melanoma)?
**A.** > 100 µM

**Q.** And the GI50 (UACC-62 melanoma)?
**A.** 40.7 µM

**Q.** What about the TGI (UACC-62 melanoma) of the same compound?
**A.** > 100 µM

**Q.** And the GI50 (HCT-15 colon)?
**A.** > 100 µM

**Q.** What about the TGI (HCT-15 colon) of the same compound?
**A.** > 100 µM

**Q.** What about the GI50 (HCT-116 colon) of the same compound?
**A.** 73.7 µM

**Q.** What about the TGI (HCT-116 colon) of the same compound?
**A.** > 100 µM

**Q.** What about the GI50 (HL-60(TB) leukemia) of the same compound?
**A.** > 100 µM

**Q.** What about the TGI (HL-60(TB) leukemia) of the same compound?
**A.** > 100 µM

**Q.** And the GI50 (NCI-H23 lung)?
**A.** > 100 µM

**Q.** What about the TGI (NCI-H23 lung) of the same compound?
**A.** > 100 µM

**Q.** And the GI50 (SN12C renal)?
**A.** 89.1 µM

**Q.** And the TGI (SN12C renal)?
**A.** > 100 µM

**Q.** And the GI50 (ACHN renal)?
**A.** 85.5 µM

**Q.** What about the TGI (ACHN renal) of the same compound?
**A.** > 100 µM

**Q.** And the GI50 (CAKI-1 renal)?
**A.** 28.1 µM

**Q.** And the TGI (CAKI-1 renal)?
**A.** 89.3 µM

**Q.** And the GI50 (NCI-H460 lung)?
**A.** > 100 µM

**Q.** And the TGI (NCI-H460 lung)?
**A.** > 100 µM

**Q.** And the GI50 (IGROV1 ovarian)?
**A.** 70.3 µM

**Q.** And the TGI (IGROV1 ovarian)?
**A.** > 100 µM

**Q.** And the GI50 (SK-MEL-5 melanoma)?
**A.** 49.8 µM

**Q.** What about the TGI (SK-MEL-5 melanoma) of the same compound?
**A.** > 100 µM

**Q.** And the GI50 (OVCAR-3 ovarian)?
**A.** 42.8 µM

**Q.** And the TGI (OVCAR-3 ovarian)?
**A.** > 100 µM

**Q.** What about the GI50 (MOLT-4 leukemia) of the same compound?
**A.** > 100 µM

**Q.** What about the TGI (MOLT-4 leukemia) of the same compound?
**A.** > 100 µM

**Q.** What about the GI50 (HCC-2998 colon) of the same compound?
**A.** 62.5 µM

**Q.** What about the TGI (HCC-2998 colon) of the same compound?
**A.** > 100 µM

**Q.** And the GI50 (A549 NSCLC)?
**A.** 83.6 µM

**Q.** What about the TGI (A549 NSCLC) of the same compound?
**A.** > 100 µM

**Q.** And the GI50 (KM20L2 colon)?
**A.** > 100 µM

**Q.** What about the TGI (KM20L2 colon) of the same compound?
**A.** > 100 µM
